In ChEMBL document CHEMBL1201862, “PubChem BioAssay data set” (2004):
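1) Cells in 96-well plates. 2) Compound, 48 h, 5 concentrations. 3) Linear interpolation between surrounding doses. 4) Unreached endpoint = highest concentration. The concentration for 50% growth inhibition is given as GI50.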 The source made the active and inactive calls. Cut-off read from the data, not from the text of the source: active = GI50 up to about 1.1 µM and inactive = higher.

Tests used:
Assay in all cases: DTP human tumour cell line panel, 48 h
[1] = test system: RPMI-8226
[2] = test system: SNB-75
[3] = test system: 786-0
[4] = test system: SK-MEL-28
[5] = test system: U-251
[6] = test system: SF-268
[7] = test system: Hs-578T
[8] = test system: SK-MEL-5
[9] = test system: LOX IMVI
[10] = test system: COLO 205
[11] = test system: NCI-H23
[12] = test system: OVCAR-8
[13] = test system: SK-OV-3
[14] = test system: SNB-19
[15] = test system: NCI-H522
[16] = test system: PC-3
[17] = test system: NCI-H460
[18] = test system: OVCAR-4
[19] = test system: KM12
[20] = test system: EKVX

Structure (SMILES)	GI50 [1]	GI50 [2]	GI50 [3]	GI50 [4]	GI50 [5]	GI50 [6]	GI50 [7]	GI50 [8]	GI50 [9]	GI50 [10]	GI50 [11]	GI50 [12]	GI50 [13]	GI50 [14]	GI50 [15]	GI50 [16]	GI50 [17]	GI50 [18]	GI50 [19]	GI50 [20]
CCO/C=N/C1=C(C#N)C(c2ccc(Cl)cc2)c2c(-c3ccccc3)nn(-c3ccccc3)c2O1 (stereo not drawn)	6.53 µM (inactive)	6.81 µM (inactive)	10.2 µM (inactive)	11.7 µM (inactive)	8.55 µM (inactive)	7.87 µM (inactive)	6.12 µM (inactive)	> 10 µM (inactive)	9.62 µM (inactive)	5.27 µM (inactive)	5.15 µM (inactive)	14 µM (inactive)	14.3 µM (inactive)	12.7 µM (inactive)	3.77 µM (inactive)	4.28 µM (inactive)	7.69 µM (inactive)	11.4 µM (inactive)	5.09 µM (inactive)	13.9 µM (inactive)
O=C1N(CN2CCOCC2)CN(CN2CCOCC2)C(=O)N1Cc1ccc(CN2C(=O)N(CN3CCOCC3)CN(CN3CCOCC3)C2=O)cc1	22.7 µM (inactive)	89.7 µM (inactive)	28.8 µM (inactive)	31.3 µM (inactive)	44.9 µM (inactive)	28.4 µM (inactive)	22 µM (inactive)	> 100 µM (inactive)	23.9 µM (inactive)	43 µM (inactive)	34.4 µM (inactive)	42 µM (inactive)	> 100 µM (inactive)	97.7 µM (inactive)	> 100 µM (inactive)	45.6 µM (inactive)	36.9 µM (inactive)	35.7 µM (inactive)	48.1 µM (inactive)	> 100 µM (inactive)
Clc1ccc(Cn2cc(/C=N/n3cnnc3)c3ccccc32)cc1	28.1 µM (inactive)	21.1 µM (inactive)	57.9 µM (inactive)	> 100 µM (inactive)	37.8 µM (inactive)	45.9 µM (inactive)	37.1 µM (inactive)	19.5 µM (inactive)	54.6 µM (inactive)	18.5 µM (inactive)	29.3 µM (inactive)	40.4 µM (inactive)	42.6 µM (inactive)	56 µM (inactive)	23.2 µM (inactive)	52.1 µM (inactive)	11.1 µM (inactive)	33.5 µM (inactive)	70.3 µM (inactive)	20.6 µM (inactive)
CCCCCC(=O)OC[n+]1ccc(-c2c(COC(=O)NC(C)C)c(COC(=O)NC(C)C)c3n2CCC3)cc1	> 100 µM (inactive)	> 100 µM (inactive)	> 92 µM (inactive)	> 100 µM (inactive)	> 100 µM (inactive)	> 94.6 µM (inactive)	> 100 µM (inactive)	> 100 µM (inactive)	> 100 µM (inactive)	> 100 µM (inactive)	> 100 µM (inactive)	> 100 µM (inactive)	> 100 µM (inactive)	> 100 µM (inactive)	> 100 µM (inactive)	> 100 µM (inactive)	72.3 µM (inactive)	> 100 µM (inactive)	> 100 µM (inactive)	> 100 µM (inactive)
CSC(=S)N/N=C/c1ccccc1	36.4 µM (inactive)	58.7 µM (inactive)	39.4 µM (inactive)	94.2 µM (inactive)	52.6 µM (inactive)	40.1 µM (inactive)	> 100 µM (inactive)	22.5 µM (inactive)	45.1 µM (inactive)	31.5 µM (inactive)	33.5 µM (inactive)	37.1 µM (inactive)	> 100 µM (inactive)	53.7 µM (inactive)	52.6 µM (inactive)	97.9 µM (inactive)	43.7 µM (inactive)	24.3 µM (inactive)	65.6 µM (inactive)	24.4 µM (inactive)
c1ccc2c(c1)CCN2CCc1c[nH]c2ccccc12	> 10 µM (inactive)	> 10 µM (inactive)	> 10 µM (inactive)	> 10 µM (inactive)	> 10 µM (inactive)	> 10 µM (inactive)	> 10 µM (inactive)	> 10 µM (inactive)	> 10 µM (inactive)	> 10 µM (inactive)	> 10 µM (inactive)	> 10 µM (inactive)	> 10 µM (inactive)	> 10 µM (inactive)	> 10 µM (inactive)	> 10 µM (inactive)	> 10 µM (inactive)	> 10 µM (inactive)	> 10 µM (inactive)	> 10 µM (inactive)
CC(=O)O[C@H]1C(=O)[C@@]2(C)[C@H]([C@H](OC(=O)c3ccccc3)[C@]3(O)C[C@H](OC(=O)[C@H](O)[C@@H](NC(=O)CC(C)(C)C)c4ccccc4)C(C)=C1C3(C)C)C1(OC(C)=O)CO[C@@H]1C[C@@H]2O (stereo partly drawn)	< 0.001 µM (active)	< 0.001 µM (active)	0.0251 µM (active)	< 0.001 µM (active)	0.00441 µM (active)	0.0023 µM (active)	< 0.001 µM (active)	0.00213 µM (active)	0.00175 µM (active)	0.0014 µM (active)	0.00237 µM (active)	0.00283 µM (active)	0.00171 µM (active)	0.122 µM (active)	0.00143 µM (active)	0.00183 µM (active)	0.00235 µM (active)	> 10 µM (inactive)		0.193 µM (active)
O=C(CCN1CCCCC1)N1CCc2c([nH]c3ccccc23)C1c1cccnc1 (stereo not drawn)	39.7 µM (inactive)	58.3 µM (inactive)	38.6 µM (inactive)	19.5 µM (inactive)	80 µM (inactive)	61.4 µM (inactive)	66.4 µM (inactive)	21.3 µM (inactive)	40.6 µM (inactive)	21.7 µM (inactive)	> 100 µM (inactive)	69.3 µM (inactive)	> 100 µM (inactive)	> 100 µM (inactive)	35.3 µM (inactive)	57 µM (inactive)	73.1 µM (inactive)	> 91 µM (inactive)	> 100 µM (inactive)	52.7 µM (inactive)
COc1ccc2nc3c([N+](=O)[O-])ccc4c3c(c2c1)N(CCCN(C)C)C(=S)N4CCCN(C)C	5.51 µM (inactive)	8.41 µM (inactive)	2.78 µM (inactive)	18.1 µM (inactive)	6.37 µM (inactive)	4.46 µM (inactive)	7.94 µM (inactive)	4.94 µM (inactive)	3.28 µM (inactive)	1.54 µM (inactive)	8.97 µM (inactive)	5.79 µM (inactive)	12.6 µM (inactive)	9.71 µM (inactive)	1.53 µM (inactive)	3.73 µM (inactive)	2.7 µM (inactive)	8.05 µM (inactive)	2.5 µM (inactive)	3.74 µM (inactive)
CCOC(=O)/C=C/[C@H](O[Si](CC)(CC)CC)C(C)(C)C	20.6 µM (inactive)	> 100 µM (inactive)	80.5 µM (inactive)		27.4 µM (inactive)	> 100 µM (inactive)	> 100 µM (inactive)	45.3 µM (inactive)	21.5 µM (inactive)	80.5 µM (inactive)	> 100 µM (inactive)	> 100 µM (inactive)	> 100 µM (inactive)	36.3 µM (inactive)	29.1 µM (inactive)	78.3 µM (inactive)	> 100 µM (inactive)	48.1 µM (inactive)	> 100 µM (inactive)	40.5 µM (inactive)
NCCNC(=O)CN(CC(=O)O)C1CCCCC1N(CC(=O)O)CC(=O)O (stereo not drawn)	> 10 µM (inactive)	2.32 µM (inactive)	> 100 µM (inactive)	> 100 µM (inactive)	> 100 µM (inactive)	24.4 µM (inactive)	56 µM (inactive)	> 100 µM (inactive)	> 100 µM (inactive)	> 100 µM (inactive)	> 100 µM (inactive)	> 100 µM (inactive)	> 100 µM (inactive)	> 100 µM (inactive)	> 100 µM (inactive)	> 100 µM (inactive)	> 100 µM (inactive)	> 100 µM (inactive)	> 100 µM (inactive)	> 100 µM (inactive)
COc1ccc(OC)c(CNc2ccc(O)c(C(=O)NCCc3ccc(F)cc3)c2)c1	2.83 µM (inactive)		23.8 µM (inactive)	3.3 µM (inactive)	11.9 µM (inactive)	11.6 µM (inactive)	22.7 µM (inactive)	7.19 µM (inactive)	11.1 µM (inactive)	18.6 µM (inactive)	17.1 µM (inactive)	16.2 µM (inactive)	17.3 µM (inactive)	15.1 µM (inactive)	2.83 µM (inactive)	10.1 µM (inactive)	13.2 µM (inactive)	9.95 µM (inactive)	9.71 µM (inactive)	19.7 µM (inactive)
COc1cc(NC(C)=O)ccc1C(=O)NN1C(=O)/C(=C/c2ccco2)N=C1c1ccccc1	13.5 µM (inactive)	> 50 µM (inactive)	24.3 µM (inactive)	28.6 µM (inactive)		> 50 µM (inactive)	> 50 µM (inactive)	16 µM (inactive)	34.2 µM (inactive)	> 50 µM (inactive)	> 50 µM (inactive)	> 50 µM (inactive)	> 50 µM (inactive)	> 50 µM (inactive)	24.5 µM (inactive)	> 50 µM (inactive)		49.5 µM (inactive)		> 50 µM (inactive)
COc1cc2c(cc1[N+](=O)[O-])C(=O)C(Br)(Br)CCC2	1.8 µM (inactive)	13.1 µM (inactive)	1.26 µM (inactive)		2.23 µM (inactive)	4.14 µM (inactive)	5.75 µM (inactive)	1.72 µM (inactive)	0.4 µM (active)	1.91 µM (inactive)	2.79 µM (inactive)	2.25 µM (inactive)	3.21 µM (inactive)	7.01 µM (inactive)	0.771 µM (active)	5 µM (inactive)	6.65 µM (inactive)	4.62 µM (inactive)	3.78 µM (inactive)	2.12 µM (inactive)
